{"source": "patent US7645882B2", "about": "“Inhibitor of protein modification products formation” (priority 2003, dated 2010)", "data": [{"tested_on": "pentosidine", "test": "Pentosidine production inhibiting effect with BSA and arabinose", "assay_type": "biochemical", "details": "BSA and arabinose instead of plasma", "method": "Fresh heparinized plasma samples were obtained after informed consent from hemodialysis patients prior to the dialysis session, and filtrated and sterilized. To the plasma (450 μL), there was added the solution of TM-2002 in dimethylsurphoxide (50 μL) (final concentration: 0.8, 2.0, 5.0 mM) incubated at 37° C. for one week. Then, the amount of pentosidine was measured.\nMeasurement of the amount of pentosidine was made as follows: to each incubated sample (50 μL) was added an equal volume of 10% trichloroacetic acid, followed by centrifugation at 5000 g for 5 minutes; after removal of the supernatant, the pellet was washed by 5% trichloroacetic acid (300 μL); the pellet was dried under reduced pressure and then subjected to hydrolysis in 6N HCl solution (100 μL) at 110° C. under nitrogen atmosphere for 16 hours; to the hydrolysate, 5N NaOH (100 μL) and 0.5 M phosphate buffer (pH 7.4) (200 μL) were added, followed by filtration through a porefilter with a pore size of 0.5 μm and dilution with PBS. The concentration of free pentosidine was determined by reversed-phase HPLC using a fluorescence detector (Miyata, T. et al.: Proc. Natl. Acad. Sci. USA, Vol. 93, p. 2353-2358, 1996). The effluent was monitored at 335/385 nm of excitation/emission wavelength. Synthetic pentosidine was used as the standard. The detection limit of pentosidine was 0.1 pmol/mg protein.\nThe plasma from patients was substituted to BSA and arabinose, and the pentosidine production inhibiting effect of another compounds (I) or (II) was measured in the same manner as [Test Examination 1]. Therein, “-” means that the examination was not carried out.", "units": {"Pentosidine production rate in 5 mM of medicament (%)": "%"}, "values": [{"smiles": "CC1=NN(c2ccccc2)C(=O)C1CCC(=O)O", "note": "(centres unmarked) [compound 7, 3-(3-methyl-5-oxo-1-penyl-4,5-dihydro-1H-pyrazol-4-yl)-propionic acid]", "Pentosidine production rate in 5 mM of medicament (%)": 64.64}, {"smiles": "CC1=NN(c2ccccc2)C(=O)C1C(c1ccccc1)c1c(C)nn(-c2ccccc2)c1O", "note": "(centres unmarked) [compound 9, 4-[(5-hydroxy-3-methyl-1-phenyl-1H-pyrazol-4-yl)-phenyl-methyl]-5-methyl-2-phenyl-2,4-dihydro-pyrazol-3-one]", "Pentosidine production rate in 5 mM of medicament (%)": 7.52}, {"smiles": "CC(=O)NC1C(=O)N(c2ccccc2)N=C1C", "note": "(centres unmarked) [compound 12, N-(3-methyl-5-oxo-1-phenyl-4,5-dihydro-1H-pyrazol-4-yl)-acetamide]", "Pentosidine production rate in 5 mM of medicament (%)": 54.21}, {"smiles": "CC1=NN(c2cccc([N+](=O)[O-])c2)C(=O)C1Sc1nnnn1-c1ccccc1", "note": "(centres unmarked) [compound 13, 5-methyl-2-(3-nitro-phenyl)-4-(1-phenyl-1H-tetrazol-5-yl-sulfanil)-2,4-dihydro-pyrazol-3-one]", "Pentosidine production rate in 5 mM of medicament (%)": 74.66}, {"smiles": "O=C(NC1=NN(c2ccccc2)C(=O)C1Sc1nnnn1-c1ccccc1)c1ccccc1", "note": "(centres unmarked) [compound 14, N-[5-oxo-1-phenyl-4-(1-phenyl-1H-tetrazol-5-yl-sulfanil)-4,5-dihydro-1H-pyrazol-3-yl]-benzamide]", "Pentosidine production rate in 5 mM of medicament (%)": 61.27}, {"smiles": "CC1=NN(c2ccccc2)C(=O)C1C1C(=O)N(c2ccccc2)N=C1C", "note": "(centres unmarked) [compound 17, 5,5′-dimethyl-2,2′-diphenyl-2,4,2′,4′-tetrahydro-[4,4′]-bipyrazol-3,3′-dione]", "Pentosidine production rate in 5 mM of medicament (%)": 60.96}, {"smiles": "COc1ccc(-c2csc(SC3C(=O)N(c4ccccc4)N=C3C)n2)cc1", "note": "(centres unmarked) [compound 19, 4-[4-(4-methoxy-phenyl)-thiazole-2-yl-sulfanil]-5-methyl-2-phenyl-2,4-dihydro-pyrazol-3-one]", "Pentosidine production rate in 5 mM of medicament (%)": 40.19}, {"smiles": "CCCC1=NN(c2ccccc2)C(=O)C1CC(=O)c1ccccc1", "note": "(centres unmarked) [compound 20, 4-(2-oxo-2-phenyl-ethyl)-2-phenyl-5-propyl-2,4-dihydro-pyrazol-3-one]", "Pentosidine production rate in 5 mM of medicament (%)": 83.12}, {"smiles": "CC1=NN(c2ccccc2)C(=O)C1Sc1nc(-c2ccc(C)cc2)cs1", "note": "(centres unmarked) [compound 21, 5-methyl-2-phenyl-4-(4-p-toluyl-thiazole-2-yl-sulfanil)-2,4-dihydro-pyrazol-3-one]", "Pentosidine production rate in 5 mM of medicament (%)": 42.07}, {"smiles": "CC1=NN(c2ccc(F)cc2)C(=O)C1C(c1ccccc1O)c1c(C)nn(-c2ccc(F)cc2)c1O", "note": "(centres unmarked) [compound 22, 2-(4-fluoro-phenyl)-4-[[1-(4-fluoro-phenyl)-5-hydroxy-3-methyl-1H-pyrazol-4-yl]-(2-hydroxy-phenyl)-methyl]-5-methyl-2,4-dihydro-pyrazol-3-one]", "Pentosidine production rate in 5 mM of medicament (%)": 2.9}, {"smiles": "CC1=NN(c2ccccc2)C(=O)C1(O)S(=O)(=O)[O-].[Na+]", "note": "(centres unmarked) [compound 25, sodium; 4-hydroxy-3-methyl-5-oxo-1-phenyl-4,5-dihydro-1H-pyrazol-4-sulfonate]", "Pentosidine production rate in 5 mM of medicament (%)": 38.80}, {"smiles": "CC1=NN(c2ccccc2)C(=O)C1(N1CCOCC1)N1CCOCC1", "note": "[compound 26, 5-methyl-4,4-di-morpholin-4-yl-2-phenyl-2,4-dihydro-pyrazol-3-one]", "Pentosidine production rate in 5 mM of medicament (%)": 50.68}, {"smiles": "O=C(NC1=NN(c2ccccc2)C(=O)C1(O)S(=O)(=O)[O-])c1ccccc1.[Na+]", "note": "(centres unmarked) [compound 27, sodium 3-benzoylamino-4-hydroxy-5-oxo-1-phenyl-4,5-dihydro-1H-pyrazol-4-sulfonate]", "Pentosidine production rate in 5 mM of medicament (%)": 2.83}, {"smiles": "CC1=NN(c2ccccc2)C(=O)C12Sc1ccccc1C2=O", "note": "(centres unmarked) [compound 28, 3-methyl-1-phenyl-5-oxo-4-spiro-(3-oxo-2,3-dihydro-benzo[b]thiophen-2-yl)-4,5-dihydro-1H-pyrazol]", "Pentosidine production rate in 5 mM of medicament (%)": 22.83}, {"smiles": "CC1=NN(c2ccccc2)C(=O)C12C(c1ccccc1)C21C(=O)N(c2ccccc2)N=C1C", "note": "(centres unmarked) [compound 30, 4,10-dimethyl-2,8,11-triphenyl-2,3,8,9-tetraza-dispiro[4.0.4.1]undeca-3,9-diene-1,7-dione]", "Pentosidine production rate in 5 mM of medicament (%)": 62.43}, {"smiles": "CCOc1cc(/C=C2/C(=O)N(c3ccccc3Cl)N=C2C)ccc1O", "note": "[compound 31, 2-(2-chloro-phenyl)-4-(3-ethoxy-4-hydroxy-benzylidene)-5-methyl-2,4-dihydro-pyrazol-3-one]", "Pentosidine production rate in 5 mM of medicament (%)": 15.57}, {"smiles": "CC1=NN(c2ccccc2Cl)C(=O)/C1=C/c1ccc(N(C)C)cc1", "note": "[compound 32, 2-(2-chloro-phenyl)-4-(4-dimethylamino-benzylidene)-5-methyl-2,4-dihydro-pyrazol-3-one]", "Pentosidine production rate in 5 mM of medicament (%)": 8.7}, {"smiles": "CC1=NN(c2cccc(C(F)(F)F)c2)C(=O)/C1=C/C=C/c1ccccc1", "note": "[compound 33, 5-methyl-4-(3-phenyl-allylidene)-2-(3-trifluoromethyl-phenyl)-2,4-dihydro-pyrazol-3-one]", "Pentosidine production rate in 5 mM of medicament (%)": 80.08}, {"smiles": "CC1=NN(c2cccc(F)c2)C(=O)/C1=C\\c1ccc(N(C)C)cc1", "note": "[compound 35, 4-(4-dimethylamino-benzylidene)-2-(3-fluoro-phenyl)-5-methyl-2,4-dihydro-pyrazol-3-one]", "Pentosidine production rate in 5 mM of medicament (%)": 76.31}, {"smiles": "CC1=NN(c2cccc(C(=O)O)c2)C(=O)/C1=C\\c1ccc(N2CCC(Cl)=N2)cc1", "note": "[compound 36, 3-{4-[4-(3-chloro-4,5-dihydro-pyrazol-1-yl)-benzylidene]-3-methyl-5-oxo-4,5-dihydro-pyrazol-1-yl}-benzoic acid]", "Pentosidine production rate in 5 mM of medicament (%)": 26.37}, {"smiles": "O=C(O)c1cccc(N2N=C(c3ccccc3)/C(=C/c3ccccc3O)C2=O)c1", "note": "[compound 37, 3-[4-(2-hydroxy-benzylidene)-5-oxo-3-phenyl-4,5-dihydro-pyrazol-1-yl]-benzoic acid]", "Pentosidine production rate in 5 mM of medicament (%)": 0.02}, {"smiles": "CC1=NN(c2cccc(Cl)c2)C(=O)/C1=C/c1cc2ccccc2[nH]c1=O", "note": "[compound 38, 3-[1-(3-chloro-phenyl)-3-methyl-5-oxo-1,5-dihydro-pyrazol-4-ylidene-methyl]-1H-quinolin-2-one]", "Pentosidine production rate in 5 mM of medicament (%)": 84.95}, {"smiles": "COC(=O)c1cccc(-c2ccc(/C=C3\\C(=O)N(c4ccc(S(N)(=O)=O)cc4)N=C3C)o2)c1", "note": "[compound 39, 3-{5-[3-methyl-5-oxo-1-(4-sulfamoyl-phenyl)-1,5-dihydro-pyrazol-4-ylidene-methyl]-furan-2-yl}-benzoic acid-methyl ester]", "Pentosidine production rate in 5 mM of medicament (%)": 16.87}, {"smiles": "COC(=O)c1ccc(N2N=C(C)/C(=C/c3ccc4c(c3)OCO4)C2=O)cc1", "note": "[compound 40, 4-(4-benzo[1,3]dioxol-5-ylmethylene-3-methyl-5-oxo-4,5-dihydro-pyrazol-1-yl)-benzoic acid-methyl ester]", "Pentosidine production rate in 5 mM of medicament (%)": 32.37}, {"smiles": "COC(=O)c1ccc(N2N=C(C)/C(=C/c3ccc(-c4ccc(S(N)(=O)=O)cc4)o3)C2=O)cc1", "note": "[compound 41, 4-{3-methyl-5-oxo-4-[5-(4-sulfamoyl-phenyl)-furan-2-yl-methylene]-4,5-dihydro-pyrazol-1-yl}-benzoic acid-methyl ester]", "Pentosidine production rate in 5 mM of medicament (%)": 37.81}, {"smiles": "CC1=NN(c2ccc(Cl)cc2)C(=O)/C1=C/c1ccc(O)cc1O", "note": "[compound 42, 2-(4-chloro-phenyl)-4-(2,4-dihydroxy-benzylidene)-5-methyl-2,4-dihydro-pyrazol-3-one]", "Pentosidine production rate in 5 mM of medicament (%)": 68.32}]}]}
